Patent US20230069749A1, “USE OF POZIOTINIB FOR THE TREATMENT OF CANCERS WITH NRG1 FUSIONS” (Board of Regents, The University of Texas System, priority 2020, published 2023)

Test system: NRG1-DOC4 fusion breast cancer cell line, MDA175-VII
Test: Cell viability of MDA175-VII cells by Cell Titer Glo assay
Format: cell-based
Details: 72 hours; for IC50 values: HER2 targeting antibody alone
Protocol: The cell viability of NRG1-DOC4 fusion breast cancer cell line, MDA175-VII, was tested with treatment of poziotinib with and without antibodies and antibody drug conjugates (ADCs) targeting HER2 and HER2/HER3 dimerization. Cell viability was determined by the Cell Titer Glo assay.

| Molecule | IC50 values [µg/mL] | IC50 (poziotinib alone) [pM] |
| --- | --- | --- |
| pertuzumab: recombinant, humanized monoclonal antibody that inhibits dimerization of HER2 | 0.0537 |  |
| C=CC(=O)N1CCC(Oc2cc3c(Nc4ccc(Cl)c(Cl)c4F)ncnc3cc2OC)CC1 [poziotinib, 1-[4-[4-(3,4-dichloro-2-fluoroanilino)-7-methoxyquinazolin-6-yl]oxypiperidin-1-yl]prop-2-en-1-one] |  | 287 |
| T-DM1 | 0.6345 |  |
